Where “and” joins values, the source holds several entries; their conditions need not be identical. Identical values can stand only once. Like-named read-outs stand apart in the source and are kept apart here.

The values below come from PMC12663214, “Synthesis, structural elucidation, and molecular docking of diclofenac-derived hydrazone metal complexes with anti-inflammatory and anticancer potential” (Scientific Reports, 2025).

Data set [1] concerns HepG-2 (liver cancer) cell line. The conditions noted are these: cited from earlier work.
Data set [2] has as its system MCF-7 (breast cancer) cell line. Conditions: cited from earlier work.
The next data set has as its target T1, COX-1 (ovine) (Ovis aries, UniProt P05979).
T1 construct: purchased Cayman Chemical 560131
T1 sequence (P05979 25-600): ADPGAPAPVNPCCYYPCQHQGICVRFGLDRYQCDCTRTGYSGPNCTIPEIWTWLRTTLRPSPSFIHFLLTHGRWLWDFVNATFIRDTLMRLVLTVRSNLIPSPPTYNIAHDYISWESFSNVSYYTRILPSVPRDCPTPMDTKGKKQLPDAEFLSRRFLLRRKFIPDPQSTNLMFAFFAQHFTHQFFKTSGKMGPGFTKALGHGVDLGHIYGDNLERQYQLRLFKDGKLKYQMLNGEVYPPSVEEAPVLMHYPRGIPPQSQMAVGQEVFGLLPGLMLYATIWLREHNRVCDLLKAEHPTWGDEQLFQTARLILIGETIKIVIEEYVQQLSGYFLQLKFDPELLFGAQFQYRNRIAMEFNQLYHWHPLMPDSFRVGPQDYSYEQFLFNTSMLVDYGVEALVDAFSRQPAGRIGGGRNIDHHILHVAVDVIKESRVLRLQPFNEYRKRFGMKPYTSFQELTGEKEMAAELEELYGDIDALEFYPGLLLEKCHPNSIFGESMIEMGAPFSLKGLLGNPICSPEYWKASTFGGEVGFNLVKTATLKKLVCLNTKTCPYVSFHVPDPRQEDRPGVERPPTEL
Description: COX-1 inhibition, ELISA kit (Cayman Chemical). The conditions noted are these: ovine COX-1, ELISA. Format: biochemical. The text has this:
(§1) These enzymes are crucial targets in the development of anti-inflammatory agents due to their roles in prostaglandin synthesis, with COX-1 associated with normal physiological functions and COX-2 predominantly involved in inflammation.

In data set [3] the target is T2, recombinant COX-2 (human) (Homo sapiens, UniProt P35354).
T2 construct: purchased Cayman Chemical 560131
T2 sequence (P35354 18-604): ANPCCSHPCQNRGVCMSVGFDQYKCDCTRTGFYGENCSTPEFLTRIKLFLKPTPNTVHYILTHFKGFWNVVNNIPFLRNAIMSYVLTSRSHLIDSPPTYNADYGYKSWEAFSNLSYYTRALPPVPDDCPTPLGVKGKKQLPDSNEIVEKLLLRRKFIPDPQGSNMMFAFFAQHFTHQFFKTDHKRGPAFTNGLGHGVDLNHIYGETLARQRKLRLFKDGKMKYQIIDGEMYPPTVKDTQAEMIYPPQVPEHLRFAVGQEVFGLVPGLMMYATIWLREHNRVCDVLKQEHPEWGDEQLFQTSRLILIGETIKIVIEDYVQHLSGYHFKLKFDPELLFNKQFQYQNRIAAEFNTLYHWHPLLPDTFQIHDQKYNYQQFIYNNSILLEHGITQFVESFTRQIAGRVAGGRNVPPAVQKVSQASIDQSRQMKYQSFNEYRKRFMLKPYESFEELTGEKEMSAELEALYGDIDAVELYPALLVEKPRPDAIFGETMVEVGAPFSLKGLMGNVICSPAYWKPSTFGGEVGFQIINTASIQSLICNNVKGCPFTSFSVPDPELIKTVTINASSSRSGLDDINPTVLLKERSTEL
Description: COX-2 inhibition, ELISA kit (Cayman Chemical). Conditions: for IC50: human recombinant COX-2, ELISA; for COX-2 selectivity index (S.I.): ratio of COX-1 IC50 to COX-2 IC50. The class given is biochemical.
From the text: as §1
(In general: An ELISA detects its analyte on a solid surface through an enzyme-linked reagent.)

Data set [4] has as its system MCF-7 (breast cancer) cell line. Description: MTT cytotoxicity assay, MCF-7. The class given is cell-based, homo sapiens, human. The conditions noted are these: for IC50: MTT, MCF-7. Here is the method:
(§2) MCF-7 and HepG-2 cell lines (provided by the Cell Culture Department, VACSERA, Egypt) were seeded in each 96-well tissue culture plate well at a concentration of 1 × 10^5 cells/ml, adding 100 µl/well. Incubation at 37 °C followed for 24 h until a full monolayer was established. The growth medium was later aspirated, and the cell monolayer was rinsed twice using wash media. It was then subjected to a two-fold dilution in an RPMI medium containing 2% serum, which is regarded as a maintenance medium. Later, 0.1 ml of each dilution was added to individual wells. Three wells were reserved for use as controls and received only the maintenance medium. The plate was then incubated at 37 °C and further monitored accordingly. The marks of toxicity to be checked on the cells include disruption of the cell monolayer, cell rounding and shrinking, or the appearance of granules. MTT solution is prepared from BIO BASIC CANADA INC with a 5 mg/ml strength in PBS. To ensure the MTT and media are well mixed, add 20 µl of MTT solution to each well and shake the plate. The MTT will be metabolized by incubating the plate at 37 °C with 5% CO2 for one to five hr. If there is any residual substance, get rid of the rest by drying the plate on paper towels. Add DMSO (200 µl) to dissolve the formazan (MTT metabolic product) and then put the plate on the shaking table set at 150 rpm for 5 min to assure that the formazan is fully dissolved into the solvent. Measure the optical density at 560 nm and subtract the background signal at 620 nm. The optical density value reflects directly the number of cells[28]–[30]. MCF-7 (breast cancer) and HepG-2 (liver cancer) cell lines.
(§3) The antitumor effects of the newly synthesized HDN ligand and its metal complexes with Cu(II) and Gd(III) were tested against MCF-7 (breast cancer) and HepG-2 (liver cancer) cell lines using the MTT assay[28]–[30].. This method measures cell viability based on mitochondrial activity, clearly indicating each compound’s cytotoxic potential. The key findings from these tests are outlined in Tables 4, S8, and S9 and illustrated in Figures S21-S31.
In general terms: Formazan colour is commonly taken as a measure of viable cells.

The subject of data set [5] is HepG-2 (liver cancer) cell line. Description: MTT cytotoxicity assay, HepG-2. Format: cell-based, homo sapiens, human. The conditions noted are these: for IC50: MTT, HepG-2. Here is the method:
as §2, §3

The nature of data set [6]: Solubility in organic solvents. The class given is physicochemical.

As usually defined, the IC50 is the point on the concentration scale where inhibition reaches its midpoint. In the case of `O=C(O)Cc1ccccc1Nc1c(Cl)cccc1Cl` [Diclofenac sodium], the IC50 in data set [1] (ref [54],[64]) was 147 µM; in data set [2] (ref [54],[64]) it was 1790 µM.

On to `O=c1[nH]cc(F)c(=O)[nH]1` [5-Fluorouracil], for which the IC50 is 32.5 µM in data set [1] (ref [55],[56]) and 3.95 µM in data set [2] (ref [55],[56]).

On to `O=C(Cc1ccccc1Nc1c(Cl)cccc1Cl)NN=Cc1c([O-])ccc2ccccc12.O=C(Cc1ccccc1Nc1c(Cl)cccc1Cl)NN=Cc1c([O-])ccc2ccccc12.[Co+2]` [Co(II)-HDN, [Co(DN)2]], for which the IC50 turned out to be 8.5 µM on COX-1 (ovine) and 0.62 µM in data set [3]. Besides, the “COX-2 selectivity index (S.I.)” value in data set [3] is reported as 13.71.

Turning to [Cu(DN)2]2.5H2O [Cu(II)-HDN], the Inhibition % in data set [4] (MCF-7, 0.31 µM/ml) was determined as 16.98%; in data set [4] (MCF-7, 0.62 µM/ml) it was 63.27%; in data set [4] (MCF-7, 1.25 µM/ml), 84.90%; in data set [4] (MCF-7, 2.50 µM/ml), 97.18%; in data set [4] (MCF-7, 5.00 µM/ml), 97.39%; in data set [4] (MCF-7, 10.00 µM/ml) it was 97.49%. In addition, the Inhibition % result in data set [4] (MCF-7, 10.00 µM/ml, listed as Cu(II) complex) was “exceeding 95%”; in data set [5] (HepG-2, 0.31 µM/ml) it was 2.96%; in data set [5] (HepG-2, 0.62 µM/ml), 35.16%; in data set [5] (HepG-2, 1.25 µM/ml), 61.65%; in data set [5] (HepG-2, 2.50 µM/ml) it was 85.53%; in data set [5] (HepG-2, 5.00 µM/ml), 97.32%. The Inhibition % in data set [5] (HepG-2, 10.00 µM/ml) is recorded as 97.38%; in data set [5] (HepG-2, 10.00 µM/ml, listed as Cu(II) complex) it was “exceeding 95%”. The results for the IC50 in data set [4] and in data set [5] were 0.65 µM and 1 µM, respectively. The “times more potent than 5-fluorouracil” value in data set [4] (breast cancer cells (MCF-7), from IC50 values) is “approximately six”.

In the case of `O.O.O.O.O=C(Cc1ccccc1Nc1c(Cl)cccc1Cl)NN=Cc1c(O)ccc2ccccc12.O=C(Cc1ccccc1Nc1c(Cl)cccc1Cl)NN=Cc1c(O)ccc2ccccc12.O=[N+]([O-])[O-].O=[N+]([O-])[O-].O=[N+]([O-])[O-].[Gd+3]` [Gd(III)-HDN, [Gd(HDN)2(NO3)2]NO3.4H2O], the IC50 is 6 µM against COX-1 (ovine), 0.8 µM in data set [4], 2.47 µM in data set [5] and 0.95 µM in data set [3]. Besides, the Inhibition % in data set [4] (MCF-7, 0.31 µM/ml) is 18.33%; in data set [4] (MCF-7, 0.62 µM/ml) it was 50.83%; in data set [4] (MCF-7, 1.25 µM/ml), 70.06%; in data set [4] (MCF-7, 2.50 µM/ml), 75.34%; in data set [4] (MCF-7, 5.00 µM/ml) it was 96.71%; in data set [4] (MCF-7, 10.00 µM/ml), 96.86%. For the same compound, the Inhibition % entry in data set [4] (MCF-7, 10.00 µM/ml, listed as Gd(III) complex) is listed as “exceeding 95%”; in data set [5] (HepG-2, 0.31 µM/ml), 0.45%; in data set [5] (HepG-2, 0.62 µM/ml), 0.40%; in data set [5] (HepG-2, 1.25 µM/ml), 7.98%; in data set [5] (HepG-2, 2.50 µM/ml), 53.05%; in data set [5] (HepG-2, 5.00 µM/ml) it was 81.14%. Moreover, the Inhibition % in data set [5] (HepG-2, 10.00 µM/ml) was 95.27%; in data set [5] (HepG-2, 10.00 µM/ml, listed as Gd(III) complex), “exceeding 95%”. For the same compound, in data set [3], the “COX-2 selectivity index (S.I.)” value worked out at 6.31.

For `O.O=C(Cc1ccccc1Nc1c(Cl)cccc1Cl)NN=Cc1c([O-])ccc2ccccc12.[Ag+]` [Ag(I)-HDN, [Ag(DN)(H2O)]], in data set [3], the “COX-2 selectivity index (S.I.)” value stood at 14.15.

Turning to `CC(C)Cc1ccc(C(C)C(=O)O)cc1` (centres unmarked) [Ibuprofen], the 50% inhibitory concentration (IC50) in data set [2] (ref [54]) was 5060 µM.

Broadly, the inhibition is the relative decrease from the control value, in per cent. Higher therefore signals a response far below the control. Regarding `O=C(Cc1ccccc1Nc1c(Cl)cccc1Cl)N/N=C/c1c(O)ccc2ccccc12` [Ligand [HDN], (E)−2-(2-((2,6-dichlorophenyl)amino)phenyl)-N’-((2-hydroxynaphthalen-1-yl)methylene)acetohydrazide], the IC50 was 10.5 µM against COX-1 (ovine); 178 µM and 82.6 µg/mL in data set [4] (Homo sapiens, MCF7); 152 µM and 70.5 µg/mL in data set [5] (Homo sapiens, HepG2); 0.06 µM in data set [3]. Further, the inhibition at 31.25 µg/mL in data set [4] (Homo sapiens, MCF7, MCF-7, 31.25 µg/ml) was found to be 7.98%; in data set [5] (Homo sapiens, HepG2, HepG-2, 31.25 µg/ml) it was 12.9%. The inhibition at 62.5 µg/mL was 52.5% in data set [4] (Homo sapiens, MCF7, MCF-7, 62.5 µg/ml) and 61.4% in data set [5] (Homo sapiens, HepG2, HepG-2, 62.5 µg/ml). In addition, the inhibition at 250 µg/mL in data set [4] (Homo sapiens, MCF7, MCF-7, 250 µg/ml) was determined as 89.2%; in data set [5] (Homo sapiens, HepG2, HepG-2, 250 µg/ml), 96.9%. Moreover, the inhibition at 500 µg/mL is 97.3% in data set [4] (Homo sapiens, MCF7, MCF-7, 500 µg/ml) and 97.2% in data set [5] (Homo sapiens, HepG2, HepG-2, 500 µg/ml). In addition, the inhibition at 1000 µg/mL was 97.5% in data set [4] (Homo sapiens, MCF7, MCF-7, 1000 µg/ml) and 97% in data set [5] (Homo sapiens, HepG2, HepG-2, 1000 µg/ml). Moreover, the solubility in acetone result in data set [6] (organic solvent: acetone) is recorded as “slight solubility”. Moreover, the “solubility in DMSO and DMF” value in data set [6] (organic solvents: DMSO, DMF) is recorded as “dissolved well”. Also, the “solubility in EtOH and MeOH” value in data set [6] (organic solvents: EtOH, MeOH) was “didn’t dissolve”. Further, the “COX-2 selectivity index (S.I.)” value in data set [3] was 174.5.

Turning to `N.N.[Cl][Pt][Cl]` [Cisplatin], the IC50 is 8.45 µM in data set [1] (ref [57],[58]) and 15.2 µM in data set [2] (ref [57],[58]).
